Data: article PMC6156138, “Combination of a Latency-Reversing Agent With a Smac Mimetic Minimizes Secondary HIV-1 Infection in vitro” (Frontiers in Microbiology, 2018)

Key:
[1] = test system: latent HIV-1-infected ACH-2 cells; experiment: HIV reactivation from latent cells: intracellular HIV-1 RNA (qRT-PCR); assay type: cell-based; conditions: 24 h (Figure 1C)
Protocol: (§1) The reactivation of HIV-1 from latently infected cells was determined by the measurement of supernatant p24 antigen and intracellular HIV-1 RNA levels. ACH-2 cells or U1 cells (5 × 10^5 cells/mL) were placed in 96-well plates, and then the cells were incubated with different concentrations of drugs for 24 h to extract RNA and for 48 h to collect the supernatant. The increase in supernatant p24 antigen levels was measured using […] G1200 (Fujirebio, Tokyo, Japan). The total RNA was extracted using an RNeasy Mini Kit (Qiagen, Hilden, Germany), following the manufacturer’s protocols. The cDNA was synthesized using PrimeScript RT Master Mix (Takara Bio, Shiga, Japan), and quantitative real-time PCR analyses for the intracellular HIV-1 RNA were carried out with PowerUp^TM SYBR Green Master Mix (Applied Biosystems, Foster City, CA, United States). The oligonucleotide primers used were as follows: 5′-[…]-3′ (forward) and 5′-[…]-3′ (reverse) for HIV-RNA detection; 5′-[…]-3′ (forward) and 5′-[…]-3′ (reverse) for β-actin. The HIV-RNA expressions were normalized with that of β-actin, which was indicated as the relative quantity, and the increase in HIV-1 RNA levels in the presence of a drug was compared with that without a drug.
(§2) FIGURE 1 (A,B) The increase in viral production from ACH-2 cells (A) and U1 cells (B) was examined by supernatant p24 antigen levels on day 2. […]

[2] = test system: latent HIV-1-infected U1 cells; experiment: as above; assay type: cell-based; conditions: 24 h (Figure 1D)
Protocol: as §1, §2

J1.1 cells = experiment: Virus production in J1.1 cells (viral RNA copies in supernatant); assay type: cell-based, HIV-1; conditions: birinapant combined with TNF-α 20 ng/mL, 48 h
Protocol: Cells were treated with birinapant with ( [drawing 1] ) or without ( [drawing 2] ) TNF-α (20 ng/mL). After 48 h incubation, culture supernatant was harvested, and viral RNA was extracted. Viral copy numbers in culture supernatant were measured by real-time RT-PCR. Click here for additional data file.

[3] = test system: primary CD4+ T-cells from HIV-1-infected patients; experiment: HIV-1 reactivation in primary CD4+ T-cells from HIV-1 patients (HIV-1 mRNA); assay type: cell-based; conditions: primary CD4+ T-cells from HIV-1-infected patients under cART, 24 h; PEP005 5 nM, birinapant 50 nM
Text: Peripheral blood samples were collected from HIV-1-infected patients who had been receiving combination antiretroviral therapy (cART) for at least 6 years. All subjects maintained lower viral load (<20 copies/ml) (except for occasional blips) during therapy. CD4^+ T-cell counts in peripheral blood samples ranged from 464–807 cells/mm^3 (average 601 cells/mm^3), and plasma viral loads were <41.3 copies/ml as measured by qPCR (Roche COBAS AmpliPrep/COBAS TaqMan HIV-1 Test version 2.0) at the time of study enrollment. Written informed consent was obtained from all the subjects. […] The total RNA was extracted, cDNA was synthesized, and quantitative real-time PCR analyses for studying the expression of intracellular HIV-1 RNA were carried out as shown above. The HIV RNA copies were calculated using a standard curve obtained from serially diluted HIV-1 plasmid, the normalized values [HIV RNA copies/input RNA (ng)] with a drug were compared with that without a drug, and the relative increase in HIV-1 RNA levels in the presence of a drug was determined.
FIGURE 5 (A) Changes in the HIV-1 mRNA expression on primary CD4^+ T-cells from HIV-1-infected patients in the presence of PEP005 and/or birinapant. […] Statistical significance was determined using Mann-Whitney U test, where P-value < 0.05 was considered to be significant.

TNF-α = TNF-α production in culture supernatants (ELISA); assay type: cell-based; conditions: ACH-2 cells, PEP005 0–50 nM, 24 h
Protocol: The expression of TNF-α mRNA was measured as previously described ([Zhang et al., 2014]). For the detection of supernatant TNF-α levels, ACH-2 cells (2.5 × 10^5 cells/ml) were incubated with various concentrations of PEP005 (0–50 nM) for 24 h at 37°C. Culture supernatants were harvested and centrifuged to remove cellular debris. The production of TNF-α was measured by using a Human TNF alpha Platinum ELISA Kit (eBioscience, Hatfield, United Kingdom) according to the manufacturer’s instructions. The sensitivity of the assay was 2.3 pg/ml.
Supplementary file Data_Sheet_6.PDF: FIGURE S6 Elevation of supernatant TNF-α protein and mRNA levels in the presence of PEP005. (A) ACH-2 cells were exposed to PEP005, incubated for 24 h, supernatant was harvested, and TNF-α protein levels were measured using ELISA. (B) Changes in mRNA levels of TNF-α in PEP005-treated primary CD4^+ T-cells in eight HIV-1 patients (Supplementary Table S3). Cells were harvested after 24 h incubation. Click here for additional data file.

Row | SMILES | intracellular HIV-1 mRNA levels [1] | intracellular HIV-1 mRNA levels [2] | virus production (viral copy numbers in culture supernatant) (J1.1 cells) | HIV-1 mRNA expression [3] | supernatant TNF-α level (TNF-α)
1 | CC[C@H](NC(=O)[C@H](C)NC)C(=O)N1C[C@@H](O)C[C@H]1Cc1c(-c2[nH]c3cc(F)ccc3c2C[C@@H]2C[C@H](O)CN2C(=O)[C@H](CC)NC(=O)[C@H](C)NC)[nH]c2cc(F)ccc12 [Birinapant] | only had a minor effect on HIV-1 reactivation | only had a minor effect on HIV-1 reactivation | suppresses virus production | failed to change the HIV-1 mRNA expression in most samples | –
2 | C/C=C(/C)C(=O)O[C@H]1C(C)=C[C@]23C(=O)[C@@H](C=C(CO)[C@@H](O)[C@]12O)[C@H]1[C@@H](C[C@H]3C)C1(C)C [PEP005, ingenol-3-angelate] | – | – | – | elevated the expression of HIV-1 mRNA | elevated
